{
  "source": "patent US20170258871A1",
  "about": "“COMBINED USE OF A TRKA INHIBITOR AND AN EPHA2 INHIBITOR FOR USING IN THE TREATMENT OF SOLID CANCERS, AND METHOD FOR THE PROGNOSIS OF SURVIVAL OF A PATIENT WHO HAS A SOLID CANCER” (UNIVERSITE DES SCIENCES ET TECHNOLOGIES DE LILLE, priority 2014, published 2017)",
  "format_in_all_cases": "cell-based",
  "key": {"Akt": {"system": "Akt", "experiment": "Western blot of Akt phosphorylation in MDA-MB-231 cells", "protocol": "(§1) FIG. 8: A study of the role of TrkA and EphA2 in the activation of proteins Akt and Src. Cells MDA-MB-231 were respectively treated with a TrkA inhibitor (K252a), an anti-EphA2 siRNA (siEphA2), an inhibitor of PI3-K (LY294002) and an inhibitor of Src (SKI-1).\n(§2) A and D. Cells MDA-MB-231 HA-TrkA were treated with proNGF N.C. […] The phosphorylation of Akt and Src was determined by using phospho-specific antibodies. The equal charge was verified using Akt and Src antibodies.\n(§3) C and F. The phosphorylation of Akt and Src was determined in the total lysates coming from cells MDA-MB-231 transfected with siEphA2 and treated for 30 minutes with proNGF N.C. (C) or NGF (F).\n(§4) After treatment, the cells were lysed (lysis buffer: 40 mM HEPES pH 7.5; 1 mM EDTA pH 8.0; 120 mM NaCl; 10 mM NaPPi; 50 mM NaF; 1.5 mM Na3VO4; 1% Triton X 100; 0.1% SDS; 1 mM PMSF; 10% glycerol and 1/100 th of protease inhibitor cocktail (Sigma) (20 min; 4° C.)). The lysates were recovered and clarified by centrifugation (12,000 g; 10 min; 4° C.). The supernatant was then stored at −80° C. until use. The protein extracts were diluted to 2 μg·μL−1 in a Laemmli 1× buffer (7 min; 100° C.) then deposited and separated on SDS-PAGE (concentration gel 3.6% acrylamide and separation gel 7.5% to 10% acrylamide (thickness 1 mm); 180 V; 10 min then 200 V constant; until output of the migration front). The proteins separated by SDS-PAGE were transferred according to the semi-dry transfer method (buffer: 48 mM Tris base, 39 mM glycine, 1.64 mM SDS, 20% methanol (v/v); 14 V; 15 min per gel) or liquid (buffer: 25 mM Tris base and 192 mM glycine; 15% methanol (v/v); 100 V; 30 min) on nitrocellulose membranes (0.45 μm; Whatman; Germany) or PVDF (0.45 μm; Immobilon P; Millipore; France). The PVDF membrane was “activated” beforehand (methanol; 10 min; 20° C.). The membranes were then saturated (TBS-T; 5% BSA; 1 h; 20° C.) then incubated (16 h; 4° C.) with the chosen primary antibody. […] The membranes were placed in an image analyser (LAS 4000; Fuji) connected to a computer which allowed image generation (software Image Reader LAS 4000).\n(§5) The antibody against EphA2 was sc-924 (Santa Cruz), the antibody against sortilin was BD Bioscience 612101, the antibody against TrkA was sc 14024 (Santa Cruz), the antibody against HA was MMS-101R (Covance), the antibody against Akt was Cell Signaling 4691, the antibody against phospho-Akt (Ser 473) was Cell Signaling 9271, the antibody against Src was Cell Signaling 2109 (WB), the antibody against PhosphoSrc (Tyr416) was Cell Signaling 2105 and the antibody against actin was Sigma A2066.\n(§6) Proteins Akt and Src were both involved in the pro-invasive effect of proNGF. In order to identify the role of TrkA and EphA2 in the activation of proteins Akt and Src, cells MDA-MB-231 were treated respectively with a TrkA inhibitor (K252a), an anti-EphA2 siRNA (siEphA2) the sequence of which is presented in table 1, a PI3-K inhibitor (LY294002) (the activation of Akt in effect underlies that of PI3-K) and an inhibitor of Src (SKI-1)."}, "Src": {"system": "Src", "experiment": "Western blot of Src phosphorylation in MDA-MB-231 cells", "protocol": "as §1, §2, §3, §4, §5, §6"}, "MDA-MB-231 cells": {"system": "MDA-MB-231 cells", "experiment": "In vitro invasion test (Boyden chamber), MDA-MB-231", "protocol": "(§7) (0.5 nM) for a period of 20 hours. The untreated cells represent the control and determine a base invasion of 100%.\n(§8) FIG. 3: A study of the involvement of EphA2 on the pro-invasive effects of proNGF. The invasion test is carried out on cells MDA-MB-231 (A), DU145 (B) and PC3 (C) transfected with a siRNA against EphA2 (siEphA2), TrkA (siTrkA) or a random siRNA (siCTRL). The transfected siCTRL cells are treated to provide a control and determine a base invasion of 100% (white column). […] The efficacy of the siRNA is measured by the western blot method through the use of specific antibodies against TrkA, EphA2, and actin (load control).\nFIG. 10: Study on the effect of lestaurtinib (TrkA inhibitor) and EphrinA1-Fc (EphA2 inhibitor) and combination of treatment on invasion of breast cancer cells. […] Non-stimulated cells (“non stim”) of proNGF served as the control and determined a base invasion of 100% (white bar).\n(§9) The Boyden Chambers (Transwell®; BD Biosciences; France) were recovered from a biological matrix (type 1 collagen from rats diluted to 400 μg·mL-1 in EMEM-0.1% FCS medium; Millipore). […] The number of cells was estimated after staining with Hoechst 33 258 (1 mM; 30 min; 20° C.) by counting the nuclei thereof using fluorescence microscopy on a total of 5 five randomly chosen fields (lens 10×; λ-excitation: 345 nm; λ-emission: 478 nm; Eclipse Ti) using the ImageJ software. […]"}, "PC3 cells": {"system": "PC3 cells", "experiment": "In vitro invasion test (Boyden chamber), PC3", "protocol": "as §7, §8\nas §9, with “Millipore). The cells were then seeded with 100,000 cells/well on PET membranes (polyethylene terephtalate; dia.: 10.5 mm; porosity: 8 μm) of Boyden Chambers and held in an EMEM-0.1% FCS medium. […] (0.5 nM) in the lower part.” for “Millipore).”"}, "[1]": {"details": "NGF 16 nM or proNGF N.C. 0.5 nM, untreated cells = 100%"}, "[2]": {"details": "NGF 30 min, 10 nM K252a or siEphA2"}, "[3]": {"details": "siRNA transfection vs siCTRL, proNGF"}},
  "data": [
    {"substance": "NGF: Nerve Growth Factor; recombinant human β NGF supplied by Scil Proteins", "values": [
      {"measurement": "activation (phosphorylation) of Akt by the ligand", "setting": "Akt; MDA-MB-231 HA-TrkA, 30 min", "result": "increased"},
      {"measurement": "activation (phosphorylation) of Src by the ligand", "setting": "Src; MDA-MB-231 HA-TrkA, 30 min", "result": "increased"},
      {"measurement": "cell invasion under growth factor", "setting": "MDA-MB-231 cells; [1]", "result": "increased cell invasion"},
      {"measurement": "cell invasion under growth factor", "setting": "PC3 cells; [1]", "result": "increased cell invasion"}
    ]},
    {"substance": "siEphA2: siRNA against EphA2, GCAAGGAAGUGGUACUGCUGGACUU (SEQ ID NO: 1) (listed as RNA, chemistry not given here)", "values": [
      {"measurement": "effect on Akt phosphorylation induced by NGF", "setting": "Akt; [2]", "result": "reduces only the base activation of phospho-Akt and phospho-Src but not the phosphorylation induced by the NGF"},
      {"measurement": "effect on Src phosphorylation induced by NGF", "setting": "Src; [2]", "result": "reduces only the base activation of phospho-Akt and phospho-Src but not the phosphorylation induced by the NGF"},
      {"measurement": "effect on Src activation induced by proNGF", "setting": "Src; proNGF N.C. 30 min, 10 nM K252a, 15 μM LY294002, 50 nM SKI-1 or siEphA2", "result": "reduced the phosphorylation of Src"},
      {"measurement": "invasion induced by proNGF in siRNA-transfected cells", "setting": "MDA-MB-231 cells; [3]", "result": "abolished the invasion induced by proNGF"},
      {"measurement": "invasion induced by proNGF in siRNA-transfected cells", "setting": "PC3 cells; [3]", "result": "abolished the invasion induced by proNGF"}
    ]}
  ]
}
